# Measured values published in paper PMC8350395, “Hsa-miR-4277 Decelerates the Metabolism or Clearance of Sorafenib in HCC Cells and Enhances the Sensitivity of HCC Cells to Sorafenib by Targeting cyp3a4” (Frontiers in Oncology, 2021).
# Like-named read-outs stand apart in the source and are kept apart here.
# Experiments:
# MHCC97-H cells [1] = assay: Assessment of cell survival (MTT); format: cell-based; conditions: Homo sapiens, MHCC97H, 48 h
# Method: (§1) After transfection or treated with potential inhibitor of cyp3a4, HCC cells were treated with a series concentrations of sorafenib, lenvatinib, cabozantinib, regorafenib, anlotinib, or apatinib (10 μmol/L, 3 μmol/L, 1 μmol/L, 0.3 μmol/L, 0.1 μmol/L, 0.03 μmol/L, or 0.01 μmol/L). After 48 h, MTT was performed to measure ell survival, and the IC50 value of each agent was calculated ([36]–[38]).
# The *P < 0.05 being statistically significant between groups.
# in vitro = conditions: human
# Method: (§2) HCC cells were used to examine the rate of elimination of sorafenib ([18], [19], [34], [35]). For cell-based experiments, HCC cells were treated with 1 μmol/L of sorafenib for 12 h. After treatment, the cells were harvested at a series of time-points. For in vivo experimentation, HCC cells were cultured and subcutaneously injected into mice to generate tumors. When tumor volume reached 2000 mm^3, a solution of sorafenib was directly injected into the tumors. After injection, the tumors were excised at a series of time-points. Next, sorafenib was extracted from MHCC97-H cells or tumors using the acetonitrile (ACN). The sustaining amount of sorafenib at each time-point was measured using liquid chromatography–mass spectrometry/mass spectrometry (LC-MS/MS) and the in vitro/in vivo half-life of sorafenib was determined ([18], [19], [34], [35]).
# (§3) SPSS 9.0 statistical software (IBM Corporation, Armonk, NY, USA) was used for all statistical analyses. Statistics were calculated using two-way ANOVA with the Bonferroni correction. IC50 values and the half-lie values (t1/2 values) were calculated using Origin software (Origin 6.1; OriginLab Corporation, Northampton, MA, USA). The *P < 0.05 being statistically significant between groups. The heat-map of the qPCR results were obtained according to the methods by Zhou et al. ([41]) and Yin et al. ([42]).
# [2] = tested on: subcutaneous tumors formed by MHCC97-H cells; assay: in vivo
# Method: as §2, §3
# in vivo = conditions: nude, mouse, in vivo, t1/2 of Sorafenib
# Method: as §2, §3
# BEL-7402 = assay: Assessment of cell survival (MTT); format: cell-based; conditions: Homo sapiens, Bel-7402, 48 h
# Method: as §1, §3
# SMMC-7721 = assay: Assessment of cell survival (MTT); format: cell-based; conditions: Homo sapiens, SMMC-7721, 48 h
# Method: as §1, §3
# [3] = tested on: patients with advanced HCC; format: in vivo, human; conditions: advanced HCC patients receiving sorafenib
# Source text: The endogenous mRNA levels of cyp3a4 in HCC clinical specimens were identified using quantitative polymerase chain reaction (qPCR) in accordance with methods described by Wang et al. ([20]) and Ma et al. ([20], [25]). […] The results (the relative expression level [folds of β-Actin]) of PXR or CAR was shown as heat-map.
# [4] = Assessment of sorafenib elimination in cultured HCC cells (LC-MS/MS); format: in vitro ADME; conditions: human, read-out: t1/2 values (converted)
# Method: as §2, §3
# MHCC97-H cells [5] = assay: Nude mouse subcutaneous tumor model; format: in vivo, nude mice
# Method: All animal experiments were reviewed approved by the Institutional Animal Care and Use Committee, the Fifth Medical Center, Chinese PLA. All animal experiments were performed in accordance with the UK Animals (Scientific Procedures) Act, 1986 and the associated guidelines. Female nude mice were purchased from the Si-Bei-Fu Corporation, Beijing China. Following transfection, MHCC97-H cells were prepared as a single-cell suspension and subcutaneously injected into nude mice ([39], [40]). The mice orally received sorafenib once every two days. Tumors from the mice were harvested, and the volumes and weights were measured ([39], [40]).
# [6] = control miRNA, read-out: IC50 values of the agents on MHCC97-H cells
# [7] = miR-4277 + CYP3A4^Mut, read-out: IC50 values of the agents on MHCC97-H cells
# [8] = miR-4277 + CYP3A4^Mut-1, read-out: IC50 values of the agents on MHCC97-H cells
# [9] = miR-4277 + CYP3A4^Mut-2, read-out: IC50 values of the agents on MHCC97-H cells
# [10] = miR-4277, read-out: IC50 values of the agents on MHCC97-H cells
# [11] = CYP3A4 mRNA expression High (n = 26)
# [12] = CYP3A4 mRNA expression Low (n = 26)
compound,measurement,setting,value
COc1cc2nccc(Oc3ccc(NC(=O)NC4CC4)c(Cl)c3)c2cc1C(N)=O [Lenvatinib],IC50,MHCC97-H cells [1]; [6],550 ± 200 nM
same,IC50,MHCC97-H cells [1]; [7],600 ± 200 nM
same,IC50,MHCC97-H cells [1]; [8],410 ± 10 nM
same,IC50,MHCC97-H cells [1]; [9],280 ± 110 nM
same,IC50,MHCC97-H cells [1]; [10],120 ± 60 nM
COc1cc2nccc(Oc3ccc(NC(=O)C4(C(=O)Nc5ccc(F)cc5)CC4)cc3)c2cc1OC [Cabozantinib],IC50,MHCC97-H cells [1]; [6],510 ± 190 nM
same,IC50,MHCC97-H cells [1]; [7],560 ± 150 nM
same,IC50,MHCC97-H cells [1]; [8],250 ± 60 nM
same,IC50,MHCC97-H cells [1]; [9],300 ± 210 nM
same,IC50,MHCC97-H cells [1]; [10],100 ± 40 nM
N#CC1(c2ccc(NC(=O)c3cccnc3NCc3ccncc3)cc2)CCCC1 [Apatinib],IC50,MHCC97-H cells [1]; [6],960 ± 330 nM
same,IC50,MHCC97-H cells [1]; [7],980 ± 370 nM
same,IC50,MHCC97-H cells [1]; [8],520 ± 270 nM
same,IC50,MHCC97-H cells [1]; [9],460 ± 300 nM
same,IC50,MHCC97-H cells [1]; [10],260 ± 70 nM
CNC(=O)c1cc(Oc2ccc(NC(=O)Nc3ccc(Cl)c(C(F)(F)F)c3)c(F)c2)ccn1 [Regorafenib],IC50,MHCC97-H cells [1]; [6],670 ± 490 nM
same,IC50,MHCC97-H cells [1]; [7],710 ± 280 nM
same,IC50,MHCC97-H cells [1]; [8],330 ± 320 nM
same,IC50,MHCC97-H cells [1]; [9],350 ± 90 nM
same,IC50,MHCC97-H cells [1]; [10],220 ± 40 nM
COc1cc2c(Oc3ccc4[nH]c(C)cc4c3F)ccnc2cc1OCC1(N)CC1 [Anlotinib],IC50,MHCC97-H cells [1]; [6],750 ± 30 nM
same,IC50,MHCC97-H cells [1]; [7],780 ± 550 nM
same,IC50,MHCC97-H cells [1]; [8],300 ± 120 nM
same,IC50,MHCC97-H cells [1]; [9],450 ± 350 nM
same,IC50,MHCC97-H cells [1]; [10],100 ± 10 nM
CNC(=O)c1cc(Oc2ccc(NC(=O)Nc3ccc(Cl)c(C(F)(F)F)c3)cc2)ccn1 [Sorafenib],IC50,"MHCC97-H cells [1]; MHCC97-H cells, control miRNA, read-out: IC50 of Sorafenib",700 ± 90 nM
same,IC50,"MHCC97-H cells [1]; MHCC97-H cells, miR-4277 + CYP3A4^Mut, read-out: IC50 of Sorafenib",920 ± 200 nM
same,IC50,"MHCC97-H cells [1]; MHCC97-H cells, miR-4277 + CYP3A4^Mut-1, read-out: IC50 of Sorafenib",220 ± 140 nM
same,IC50,"MHCC97-H cells [1]; MHCC97-H cells, miR-4277 + CYP3A4^Mut-2, read-out: IC50 of Sorafenib",350 ± 50 nM
same,IC50,"MHCC97-H cells [1]; MHCC97-H cells, miR-4277, read-out: IC50 of Sorafenib",150 ± 10 nM
same,IC50,"MHCC97-H cells [1]; Solvent control (no CYP3A4 inhibitor), read-out: Sorafenib on MHCC97-H IC50 values",680 ± 110 nM
same,half-life at 1 μmol/L,in vitro,21.6 ± 1.34 h
same,half-life at 1 μmol/L,in vitro; MHCC97-H cells (HCC cell line),23.6 ± 0.7 h
same,half-life at 1 μmol/L,in vitro; MHCC97-H cells (HCC cell line) transfected with miR-4277,38.5 ± 9.97 h
same,half-life at 1 μmol/L,in vitro; MHCC97-H cells (HCC cell line) with miR-4277 + CYP3A4^Mut,19.9 ± 2.71 h
same,half-life at 1 μmol/L,in vitro; MHCC97-H cells (HCC cell line) with miR-4277 + CYP3A4^Mut-1,22.1 ± 6.59 h
same,half-life at 1 μmol/L,in vitro; MHCC97-H cells (HCC cell line) with miR-4277 + CYP3A4^Mut-2,24.7 ± 8.63 h
same,t1/2 of Sorafenib,"[2]; nude, mouse, in vivo",72.79 ± 7.52 h
same,t1/2 of Sorafenib,"[2]; subcutaneous MHCC97-H tumors, miR-4277 + CYP3A4^Mut-1, sorafenib injected into tumors",52.38 ± 16.19 h
same,t1/2 of Sorafenib,"[2]; subcutaneous MHCC97-H tumors, miR-4277 + CYP3A4^Mut, sorafenib injected into tumors",36.67 ± 12.58 h
same,half-life,in vivo,45.7 ± 5.31 h
same,IC50,"BEL-7402; BEL-7402, control",1790 ± 180 nM
same,IC50,"BEL-7402; BEL-7402, miR-4277",280 ± 50 nM
same,IC50,"BEL-7402; BEL-7402, miR-4277 + CYP3A4^Mut",2880 ± 350 nM
same,IC50,"SMMC-7721; SMMC-7721, control",1950 ± 540 nM
same,IC50,"SMMC-7721; SMMC-7721, miR-4277",730 ± 330 nM
same,IC50,"SMMC-7721; SMMC-7721, miR-4277 + CYP3A4^Mut",1920 ± 550 nM
same,OS (overall survival),[3]; [11],8.0 M
same,TTP (time to progress),[3]; [11],9.0 M
same,OS (overall survival),[3]; [12],15.0 M
same,TTP (time to progress),[3]; [12],11.0 M
same,half-life at 1 μmol/L,"[4]; BEL-7402 cells (HCC cell line) with miR-4277 + CYP3A4^Mut, BEL-7402, miR-4277 + CYP3A4^Mut",26.4 ± 3.79 h
same,half-life at 1 μmol/L,"[4]; BEL-7402 cells (HCC cell line) with miR-4277, BEL-7402, miR-4277",42.4 ± 3.33 h
same,half-life at 1 μmol/L,"[4]; BEL-7402 cells (HCC cell line), BEL-7402, control",28.2 ± 8.67 h
same,half-life at 1 μmol/L,"[4]; HepG2 cells (HCC cell line) with miR-4277 + CYP3A4^Mut, HepG2, miR-4277 + CYP3A4^Mut",25.7 ± 4.47 h
same,half-life at 1 μmol/L,"[4]; HepG2 cells (HCC cell line) with miR-4277, HepG2, miR-4277",56.4 ± 1.9 h
same,half-life at 1 μmol/L,"[4]; HepG2 cells (HCC cell line), HepG2, control",30.3 ± 3.31 h
same,half-life at 1 μmol/L,"[4]; SMMC-7721 cells (HCC cell line) with miR-4277 + CYP3A4^Mut, SMMC-7721, miR-4277 + CYP3A4^Mut",27.4 ± 6.93 h
same,half-life at 1 μmol/L,"[4]; SMMC-7721 cells (HCC cell line) with miR-4277, SMMC-7721, miR-4277",46.2 ± 2.88 h
same,half-life at 1 μmol/L,"[4]; SMMC-7721 cells (HCC cell line), SMMC-7721, control",25.7 ± 2.43 h
same,subcutaneous growth of MHCC97-H cells,"MHCC97-H cells [5]; 0.5 mg/kg dose of sorafenib, oral, control-transfected cells",had no effect
same,"subcutaneous growth of HCC cells (tumor volumes, tumor weights)","MHCC97-H cells [5]; oral sorafenib once every two days, indicated doses, nude mice",inhibited the subcutaneous growth of HCC cells in a dose-dependent manner
